Measured values published in publication PMC6628648, “Enabling microbial syringol conversion through structure-guided protein engineering” (Proceedings of the National Academy of Sciences of the …, 2019).

Key:
Test in all cases: End-point coupling assay (formaldehyde produced per NADH consumed)
Type in all cases: biochemical, Amycolatopsis sp. ATCC 39116
Conditions in all cases: molar ratio formaldehyde produced per NADH consumed, 200 µM NADH, 200 µM aromatic substrate
GcoA variant F169H = target: T1, GcoA variant F169H (Amycolatopsis sp., UniProt P0DPQ7, F169H)
T1 construct: GST (N, cleaved yes); made in house; host or cells: E. coli Rosetta 2 (DE3)
T1 sequence (P0DPQ7 whole entry F169H): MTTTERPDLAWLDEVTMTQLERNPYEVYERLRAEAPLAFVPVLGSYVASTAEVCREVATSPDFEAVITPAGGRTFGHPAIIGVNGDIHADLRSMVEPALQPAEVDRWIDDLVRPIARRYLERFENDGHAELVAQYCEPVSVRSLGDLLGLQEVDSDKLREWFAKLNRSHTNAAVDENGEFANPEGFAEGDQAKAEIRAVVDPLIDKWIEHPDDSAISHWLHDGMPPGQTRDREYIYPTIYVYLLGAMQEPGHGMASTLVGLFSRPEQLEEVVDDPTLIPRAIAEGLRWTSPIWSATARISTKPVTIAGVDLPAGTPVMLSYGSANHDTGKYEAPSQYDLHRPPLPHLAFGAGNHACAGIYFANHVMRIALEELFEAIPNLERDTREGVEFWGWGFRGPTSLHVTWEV
Procedure: (§1) The [formaldehyde] produced on reaction with GcoA-F169A and substrates was determined using a colorimetric assay with tryptophan ([28], [42]); details are provided in SI Appendix. […]
(§2) vi = Vmax[S]/(KM + [S]) (4) […]
(§3) Formaldehyde determination. A colorimetric assay using tryptophan can be used to quantify the amount of formaldehyde produced in F169 GcoA/B reactions with guaiacol, syringol, or 3MC. 0.2 µM each of F169 GcoA mutants and GcoB were dissolved in air-saturated buffer (25 mM HEPES, 50 mM NaCl) in a cuvette at pH 7.5, 25 °C. 100 µg/mL catalase was added to each reaction to capture any H2O2 formed during the uncoupled reaction. 200 μM NADH was added and the background rate recorded. 100 (guaiacol, syringol, or 3MC) or 200 (syringol) μM of substrate was then added and the reaction monitored until there was no more change, due to either substrate, NADH or O2 depletion, whichever occurred first. 200 µL of the reaction was then quenched by adding 200 µL of a 0.1% tryptophan solution in 50% ethanol and 200 µL of 90% sulfuric acid. Upon thorough mixing, 40 µL of 1% FeCl3 was added. The solution was then incubated in a heating block for 90 min at 70 °C. After cooling, the absorbance was read at 575 nm and the [formaldehyde] calculated by using ε575 nm = 4.2 mM-1 cm-1, obtained with formaldehyde as a standard (1). A negative control included everything but the substrate and was used as a baseline. […]
(§4) The reaction of each aliquot was immediately quenched with 12.5
(§5) μL saturated ammonium sulfate, 7% v/v H2SO4 (pH 2.0) prior to loading onto the HPLC column. [Substrate] disappearance was referenced to GcoA (0.2 µM) and fit to a linear line to determine specific activity.
(§6) Data analysis. The consumption of NADH and subsequent production of formaldehyde and aromatic product were measured in triplicate and the error reported as ±1 standard deviation. To determine the statistical significance between NADH consumption and the products produced, the p-value was determined for all runs containing guaiacol, syringol, and 3MC. These values were calculated using two degrees of freedom, a tail value of two, and assuming a t-statistical value for unequal variances.
(§7) Detection of H2O2 via horseradish peroxidase (HRP) and Amplex Red assay. The reaction between 100 μM guaiacol or 3MC with 0.2 μM F169A/GcoB and 100 μM NADH in air-saturated buffer (25 mM HEPES, 50 mM NaCl, pH 7.5) was monitored continuously in a quartz cuvette, using the NADH consumption assay described above. The same thing was done for syringol, but with either 100 or 200 μM NADH. When there was no longer any change in the spectra, e.g., the reaction was completed, 100 μL was removed from the cuvette and pipetted into a 96-well microplate. A 5 mL solution containing 50 μL of 10 mM Amplex Red (prepared in DMSO and stored at -20 °C) and 100 μL of 10 U/mL HRP was made up in the above buffer. 100 μL of this was added to each of the wells with each reaction sample. The plate was incubated in the dark at room temperature for 30 min, at which point the absorbance at […]
(§8) Table S1. Rate of substrate disappearance or product appearance (specific activity) for F169A.
(§9) Substrate NADH disappearance aromatic substrate disappearance KD (µM) […]
(§10) Table S2. Rates of substrate disappearance and coupling efficiencies for reactions catalyzed by the GcoA-F169 variants.
(§11) GcoA Specific activity Coupling Specific activity Coupling Specific activity (μmol Coupling variant (μmol sec-1 μmol-1 efficiency (μmol sec-1 μmol-1 efficiency sec-1 μmol-1 GcoA)a efficiency GcoA)a (%)b GcoA)a (%)b (%)b […]
(§12) aNADH consumption was monitored continuously over time via UV/vis and quantifying with ε340 = 6.22 mM-1 cm-1 at 25°C, 25 mM HEPES, 50 mM NaCl, pH 7.5 and saturating (200 µM) concentrations of all substrates (syringol, guaiacol, and 3MC). bCalculated as the molar ratio of formaldehyde produced per NADH consumed in a fixed-time assay. Assay conditions: 0.2 µM […]

GcoA variant F169I = target: T2, GcoA variant F169I (Amycolatopsis sp., UniProt P0DPQ7, F169I)
T2 construct: GST (N, cleaved yes); made in house; host or cells: E. coli Rosetta 2 (DE3)
T2 sequence (P0DPQ7 whole entry F169I): as the sequence (P0DPQ7 whole entry F169H) above, with H169I counted along it
Procedure: as §1, §2, §3, §4, §5, §6, §7, §8, §9, §10, §11, §12

GcoA variant F169L = target: T3, GcoA variant F169L (Amycolatopsis sp., UniProt P0DPQ7, F169L)
T3 construct: GST (N, cleaved yes); made in house; host or cells: E. coli Rosetta 2 (DE3)
T3 sequence (P0DPQ7 whole entry F169L): as the sequence (P0DPQ7 whole entry F169H) above, with H169L counted along it
Procedure: as §1, §2, §3, §4, §5, §6, §7, §8, §9, §10, §11, §12

GcoA variant F169S = target: T4, GcoA variant F169S (Amycolatopsis sp., UniProt P0DPQ7, F169S)
T4 construct: GST (N, cleaved yes); made in house; host or cells: E. coli Rosetta 2 (DE3)
T4 sequence (P0DPQ7 whole entry F169S): as the sequence (P0DPQ7 whole entry F169H) above, with H169S counted along it
Procedure: as §1, §2, §3, §4, §5, §6, §7, §8, §9, §10, §11, §12

GcoA variant F169V = target: T5, GcoA variant F169V (Amycolatopsis sp., UniProt P0DPQ7, F169V)
T5 construct: GST (N, cleaved yes); made in house; host or cells: E. coli Rosetta 2 (DE3)
T5 sequence (P0DPQ7 whole entry F169V): as the sequence (P0DPQ7 whole entry F169H) above, with H169V counted along it
Procedure: as §1, §2, §3, §4, §5, §6, §7, §8, §9, §10, §11, §12

Compound	Coupling efficiency (GcoA variant F169H)	Coupling efficiency (GcoA variant F169I)	Coupling efficiency (GcoA variant F169L)	Coupling efficiency (GcoA variant F169S)	Coupling efficiency (GcoA variant F169V)
COc1cccc(O)c1O [3MC, 3-methoxycatechol]	28 ± 20%	10 ± 9%	5.0 ± 4%	67 ± 8%	40 ± 3%
COc1ccccc1O [guaiacol, 2-methoxyphenol]	103 ± 10%	41 ± 10%	73 ± 3%	67 ± 8%	105 ± 2%
COc1cccc(OC)c1O [syringol, 2,6-dimethoxyphenol]	56 ± 7%	14 ± 2%	7.8 ± 2%	85 ± 5%	100 ± 10%
